pIC50: −log10 of the molar value. Where a name gives a salt, the structure may show the parent alone.
How the values were obtained:
[1] = target: T1, NEP (membranes from rat kidney cortex) (Rattus norvegicus, UniProt P07861); test: In vitro NEP-inhibitory activity in rat kidney cortex membranes ([3H][Leu5]-enkephaline substrate); format: biochemical, male Sprague-Dawley rats; conditions: for pIC50: 20 minutes at 30° C., [3H][Leu5]-enkephaline 15 nM
T1 construct: from tissue; host or cells: kidney cortex membranes of male Sprague-Dawley rats
T1 sequence (P07861 1-750): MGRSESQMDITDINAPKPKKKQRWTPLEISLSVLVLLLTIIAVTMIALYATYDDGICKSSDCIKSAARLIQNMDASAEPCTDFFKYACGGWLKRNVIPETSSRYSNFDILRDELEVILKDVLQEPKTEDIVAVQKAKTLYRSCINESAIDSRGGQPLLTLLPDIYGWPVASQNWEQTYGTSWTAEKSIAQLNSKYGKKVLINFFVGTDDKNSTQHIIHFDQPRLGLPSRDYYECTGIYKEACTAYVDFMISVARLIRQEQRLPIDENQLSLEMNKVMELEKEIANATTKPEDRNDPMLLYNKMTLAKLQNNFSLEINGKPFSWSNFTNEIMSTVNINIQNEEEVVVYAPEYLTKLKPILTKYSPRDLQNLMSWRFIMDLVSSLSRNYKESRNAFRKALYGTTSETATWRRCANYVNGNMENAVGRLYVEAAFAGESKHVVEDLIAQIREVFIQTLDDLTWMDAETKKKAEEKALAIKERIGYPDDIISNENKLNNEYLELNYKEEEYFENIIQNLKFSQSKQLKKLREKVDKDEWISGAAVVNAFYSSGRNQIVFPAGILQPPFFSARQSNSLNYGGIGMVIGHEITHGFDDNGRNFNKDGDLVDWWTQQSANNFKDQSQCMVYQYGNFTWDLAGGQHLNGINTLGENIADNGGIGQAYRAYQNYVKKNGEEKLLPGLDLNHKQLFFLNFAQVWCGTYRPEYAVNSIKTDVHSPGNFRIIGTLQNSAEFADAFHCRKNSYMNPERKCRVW
Method: a) NEP-inhibitory activity
The NEP-inhibitory activity was evaluated in membranes from rat kidney cortex prepared according to the procedure described by T. Maeda et al. in Biochim. Biophys. Acta 1983, 731(1), 115-120.
By working at 0°-4° C., kidneys were removed from male Sprague-Dawley rats weighing approximately 300 g.
Cortex was carefully dissected, finely minced and suspended in a homogenization buffer (10 mM sodium phosphate pH 7.4 containing 1 mM MgCl2, 30 mM NaCl, 0.02% NaN3) 1:15 weight/volume.
The tissue was then homogenized for 30 seconds using an Ultra-Turrax homogenizer.
Approximately 10 ml of homogenate were layered over 10 ml of sucrose (41% weight/volume) and centrifuged at 31200 rpm for 30 minutes at 4° C. in a fixed angle rotor. The membranes were collected from the buffer/sucrose interface, washed twice with 50 mM TRIS/HCl buffer (pH 7.4) and resuspended into the same buffer for storage.
The membranes were stored in small aliquots at -80° C. until use.
The NEP-inhibitory activity was evaluated according to the method described by C. Llorens et al., in Eur. J. Pharmacol., 69, (1981), 113-116, as reported hereinafter.
Aliquots of the membrane suspension prepared as above described (concentration 5 μg/ml of proteins) were preincubated in the presence of an aminopeptidase inhibitory (Bestatin--1 mM) for 10 minutes at 30° C.
[^3 H][Leu^5 ]-enkephaline (15 nM) and buffer TRIS/HCl pH 7.4 (50 mM) were added in order to obtain a final volume of 100 μl.
Incubation (20 minutes at 30° C.) was stopped by adding HCl 0.1M (100 μl).
The formation of the metabolite [^3 H]Tyr-Gly-Gly was quantified by chromatography on polystyrene columns (Porapak Q).

[2] = target: T2, ACE (purified by lung rabbit, EC 3.4.15.1) (Oryctolagus cuniculus, UniProt P12822); test: In vitro ACE-inhibitory activity (FAPGG substrate, spectrophotometric); format: biochemical; conditions: 37° C.; FAPGG 0.8 mM
T2 construct: purchased SIGMA; host or cells: rabbit lung
T2 sequence (P12822 34-1310): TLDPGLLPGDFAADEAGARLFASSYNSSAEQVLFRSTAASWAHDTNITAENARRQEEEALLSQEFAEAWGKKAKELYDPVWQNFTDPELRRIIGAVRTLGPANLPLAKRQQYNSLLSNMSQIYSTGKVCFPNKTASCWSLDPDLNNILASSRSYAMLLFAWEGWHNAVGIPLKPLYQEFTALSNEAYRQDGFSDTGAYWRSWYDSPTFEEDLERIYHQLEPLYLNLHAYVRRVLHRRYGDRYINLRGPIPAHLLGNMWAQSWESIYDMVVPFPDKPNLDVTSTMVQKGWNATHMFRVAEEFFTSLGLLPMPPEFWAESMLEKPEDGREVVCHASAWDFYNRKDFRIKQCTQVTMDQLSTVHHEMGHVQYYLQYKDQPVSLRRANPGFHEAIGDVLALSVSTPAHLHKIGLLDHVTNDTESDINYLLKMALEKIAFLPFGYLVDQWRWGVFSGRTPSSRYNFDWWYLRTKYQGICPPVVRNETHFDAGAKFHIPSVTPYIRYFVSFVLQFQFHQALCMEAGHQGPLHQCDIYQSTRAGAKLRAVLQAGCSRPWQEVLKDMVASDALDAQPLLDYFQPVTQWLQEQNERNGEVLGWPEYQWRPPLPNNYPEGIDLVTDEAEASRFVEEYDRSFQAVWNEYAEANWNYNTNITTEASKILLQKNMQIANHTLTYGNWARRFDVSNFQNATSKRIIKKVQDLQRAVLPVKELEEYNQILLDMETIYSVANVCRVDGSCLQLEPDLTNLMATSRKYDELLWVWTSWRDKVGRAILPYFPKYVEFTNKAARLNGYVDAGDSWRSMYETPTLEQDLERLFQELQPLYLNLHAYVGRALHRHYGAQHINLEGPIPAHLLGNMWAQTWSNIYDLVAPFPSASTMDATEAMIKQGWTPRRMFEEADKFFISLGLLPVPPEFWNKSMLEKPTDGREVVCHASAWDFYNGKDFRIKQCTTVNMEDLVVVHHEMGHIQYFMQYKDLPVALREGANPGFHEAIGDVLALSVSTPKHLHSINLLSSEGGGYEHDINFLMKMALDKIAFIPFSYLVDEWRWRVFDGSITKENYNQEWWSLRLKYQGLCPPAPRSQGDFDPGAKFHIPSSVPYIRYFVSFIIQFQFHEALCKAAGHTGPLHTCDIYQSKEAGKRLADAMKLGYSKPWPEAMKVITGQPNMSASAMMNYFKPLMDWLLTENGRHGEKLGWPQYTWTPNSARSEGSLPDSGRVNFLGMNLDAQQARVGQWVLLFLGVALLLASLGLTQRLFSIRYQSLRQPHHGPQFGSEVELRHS
Method: b) ACE-inhibitory activity
The ACE-inhibitory activity was evaluated according to the method reported in the literature by B. Holmquist et al., in Analytical Biochemistry 95, 540-548 (1979).
[…] of ACE (250 mU/ml purified by lung rabbit, EC 3.4.15.1 SIGMA) were preincubated with 50 μl of the compound of formula I or of the comparison compound in thermostated cuvettes at 37° C.
The reaction was started by adding furylacryloylphenylalanylglycylglycine 0.8 mM (FAPGG-SIGMA).
Contemporaneously, by using a Beckman DU-50 spectrophotometer provided with a program for calculating delta A/minutes and regression coefficients of the enzyme kinetics curves, the absorbance at 340 nm was recorded in continuo for 5 minutes.
The percentage of the enzyme inhibition in the preparations treated with the compounds of formula I or with the comparative compounds with respect to the untreated preparations was expressed as IC50 (nM) value.

ACE/NEP = test: Ex vivo mixed/dual ACE/NEP-inhibitory activity (lung and kidney of SHR taken together); format: in vivo, spontaneously hypertensive rats (SHR); conditions: intravenous or oral
Method: The ex vivo ACE/NEP-inhibitory activity of the compounds of formula I, in particular, was evaluated by considering the enzymatic activity in tissue homogenates (lung and kidney for the ACE- and NEP-inhibitory activity, respectively) from spontaneously hypertensive rats (SHR), treated with the tested compounds by intravenous or oral route.
The inhibitory activity of the compounds of formula I was evaluated in kidneys of spontaneously hypertensive rats (SHR), 5 minutes after i.v. injection (0.6, 0.64 and 21 μmoles/kg) and 30 minutes, 60 minutes and 4 hours after oral administration (30 μmoles/kg) of the tested compounds.
The inhibitory activity of the compounds of formula I was evaluated in lungs of spontaneously hypertensive rats (SHR), 5 minutes after i.v. injection (0.6, 0.64 and 21 μmoles/kg) and 30 minutes, 60 minutes and 4 hours after oral administration (30 μmoles/kg) of the tested compounds.
As an example, the percentages of basal enzymatic activity obtained in the ex vivo tests after the administration of compounds 29 and 41, as representative compounds of formula I, and of the comparison compounds R-1, R-2, R-3 and R-4 are reported in the following table 2.

Compound	pIC50 [1]	pIC50 [2]	NEP-inhibitory activity % inhibition (10^-7 M) ([1]; concentration 10^-7 M) [%]	inhibition at 0.1 µM ([1]; read-out: NEP-inhibitory activity % inhibition (10^-7 M), concentration 10^-7 M) [%]	ex-vivo mixed/dual ACE/NEP-inhibitory activity, in words (ACE/NEP)
Cc1cc(CC(CS)C(=O)N[C@@H](Cc2ccc(-c3ccccc3)cc2)C(=O)O)on1 (single isomer, unassigned) [compound 54, N-[2-mercaptomethyl-3-(3-methyl-5-isoxazolyl)propionyl]-(1,1'-biphenyl-4-yl)-L-alanine]	–	7.96	76	–	–
O=C(N[C@@H](Cc1ccc(-c2ccccc2)cc1)C(=O)O)[C@H](CS)Cc1ccccc1 [compound 47, N-[(2R)-2-mercaptomethyl-3-phenylpropionyl]-(1,1'-biphenyl-4-yl)-L-alanine]	8.21	7.60	–	–	–
O=C(N[C@@H](Cc1ccc(-c2ccccc2)cc1)C(=O)O)C(CS)Cc1cccnc1 (single isomer, unassigned) [compound 50, N-[2-mercaptomethyl-3-(3-pyridyl)propionyl]-(1,1'-biphenyl-4-yl)-L-alanine hydrochloride]	8.54	7.89	–	–	–
COc1cccc(CC(CS)C(=O)N[C@@H](Cc2ccc(-c3ccccc3)cc2)C(=O)O)c1 (single isomer, unassigned) [compound 42, N-[2-mercaptomethyl-3-(3-methoxyphenyl)propionyl]-(1,1'-biphenyl-4-yl)-L-alanine]	7.80	8.12	–	–	–
Cc1cc(CC(CS)C(=O)N[C@@H](Cc2ccc(-c3ccccc3)cc2)C(=O)O)on1 (single isomer, unassigned) [compound 53, N-[2-mercaptomethyl-3-(3-methyl-5-isoxazolyl)propionyl]-(1,1'-biphenyl-4-yl)-L-alanine]	–	7.89	–	94	–

Compounds with a higher pIC50 [2], results first:

pIC50 [1]	pIC50 [2]	NEP-inhibitory activity % inhibition (10^-7 M) ([1]; concentration 10^-7 M) [%]	inhibition at 0.1 µM ([1]; read-out: NEP-inhibitory activity % inhibition (10^-7 M), concentration 10^-7 M) [%]	Compound	ex-vivo mixed/dual ACE/NEP-inhibitory activity, in words (ACE/NEP)
8.43	8.22	–	–	O=C(N[C@@H](Cc1ccc(-c2ccccc2)cc1)C(=O)O)C(CS)Cc1ccco1 (stereo partly drawn) [compound 52, N-[3-(2-furyl)-2-(mercaptomethyl)propionyl]-(1,1'-biphenyl-4-yl)-L-alanine]	–
7.62	8.30	–	–	CC(c1ccccc1)C(CS)C(=O)N[C@@H](C)C(=O)O (stereo partly drawn) [RB 105, N-[2-(mercaptomethyl)-3-phenylbutanoyl]-L-alanine, reference compound]	not confirmed by ex-vivo tests
8.92	8.42	–	–	CC(C)C(CS)C(=O)N[C@@H](Cc1ccc(-c2ccccc2)cc1)C(=O)O (stereo partly drawn) [compound 49, N-(2-isopropyl-3-mercaptopropionyl)-(1,1'-biphenyl-4-yl)-L-alanine]	–
8.74	8.59	–	–	O=C(N[C@@H](Cc1ccc(-c2ccccc2)cc1)C(=O)O)[C@@H](CS)Cc1ccccc1 [compound 46, N-[(2S)-2-mercaptomethyl-3-phenylpropionyl]-(1,1'-biphenyl-4-yl)-L-alanine]	–
7.89	8.70	–	–	O=C(N[C@@H](Cc1ccc(-c2ccccc2)cc1)C(=O)O)C(CS)Cc1cccnc1 (single isomer, unassigned) [compound 51, N-[2-mercaptomethyl-3-(3-pyridyl)propionyl]-(1,1'-biphenyl-4-yl)-L-alanine hydrochloride]	–
